Columns and labels:
[1] = system: RKO (RKOp27) human colon adenocarcinoma cells; assay: Alamar Blue cell viability assay, anti-proliferative/cytotoxic activity, proliferating (uninduced) RKOp27 cells; type: cell-based; conditions: no Ponasterone A, 72 hours incubation, 4000 cells per well, read-out: IC50 RKO p27 uninduced
Procedure: The anti-proliferative/cytotoxic activity of the compounds described herein, can be tested on subclones of RKO (RKOp27) human colon adenocarcinoma cells (Schmidt et al., Oncogene 19, 2423-2429; 2000) using the Alamar Blue cell viability assay (described in O'Brien et al. Eur J Biochem 267, 5421-5426, 2000). The compounds are dissolved as 20 mM solutions in dimethylsulfoxide (DMSO) and subsequently diluted in semi-logarithmic steps. DMSO dilutions are further diluted 1:100 into Dulbecco's modified Eagle's medium (DMEM) containing 10% fetal calf serum to a final concentration twice as much as the final concentration in the test. RKO subclones are seeded into 96 well flat bottom plates at a density of 4000 cells per well in a volume of 50 μl per well. 24 hours after seeding the 50 μl each of the compound dilutions in DMEM medium are added into each well of the 96 Well plate. Each compound dilution is tested as quadruplicates. Wells containing untreated control cells are filled with 50 μl DMEM medium containing 1% DMSO. The cells are then incubated with the substances for 72 hours at 37° C. in a humified atmosphere containing 5% carbon dioxide. To determine the viability of the cells, 10 μl of an Alamar Blue solution (Biosource) are added and the fluorescence was measured at an extinction of 544 nm and an emission of 590 nm. For the calculation of the cell viability the emission value from untreated cells is set as 100% viability and the emission rates of treated cells were set in relation to the values of untreated cells. Viabilities are expressed as % values.
The corresponding IC50 values of the compounds for anti-proliferative/cytotoxic activity are determined from the concentration-effect curves.
Representative IC50 values for anti-proliferation/cytotoxicity determined in the aforementioned assay are described in the table A (1st column), in which the numbers of the compound correspond to the numbers of the examples.

[2] = system: RKOp27 colon adenocarcinoma cells arrested by expression of ectopic p27Klp1; assay: Alamar Blue cell viability assay, cell cycle specific mode of action, RKOp27 cells arrested by Ponasterone A-induced p27 expression; type: cell-based; conditions: Homo sapiens, cells arrested by p27 induced with 10 μM Ponasterone A, 72 hours incubation, 16000 cells per well, read-out: IC50 RKO p27 induced
Procedure: To determine the cell cycle specific mode of action, subclones of RKO colon adenocarcinoma cells (RKOp27 or RKOp21 as described by Schmidt et al. in Oncogene 19, 2423-2429; 2000) are seeded into 96 well flat bottom plates at a density of 16000 cells per well in a volume of 50 μl per well in DMEM growth medium with 10% FCS containing 10 μM Ponasterone A. 24 hours after seeding the 50 μl each of the compound dilutions in DMEM medium are added into each well of the 96 Well plate. Each compound dilution is tested as quadruplicates. Wells containing untreated control cells are filled with 50 μl DMEM medium containing 1% DMSO. The cells are then incubated with the substances for 72 hours at 37° C. in a humidified atmosphere containing 5% carbon dioxide. To determine the viability of the cells, 10 μl of an Alamar Blue solution (Biosource) are added and the fluorescence was measured at an extinction of 544 nm and an emission of 590 nm. For the calculation of the cell viability the emission value from untreated cells is set as 100% viability and the emission rates of treated cells are set in relation to the values of untreated cells. Viabilities are expressed as % values. Viability is compared of proliferating cells grown in the absence of the inducer Ponasterone A, versus viability of cells arrested by the expression of ectopic p27Klp1 induced by Ponasterone A. The data of this experimental setting are summarized in table A (2nd column).

SMILES: CCOC(=O)N1CCc2c(sc(NC(=O)c3c(C)noc3-c3ccccc3)c2C#N)C1 [Compound 5, 3-Cyano-2-{[1-(3-methyl-5-phenyl-isoxazol-4-yl)-methanoyl]-amino}-4,7-dihydro-5H-thieno [2,3-c]pyridine-6-carboxylic Acid Ethyl Ester]
- IC50 [1]: 2000 nM
- IC50 [2]: > 100000 nM

SMILES: CCOC(=O)N1CCc2c(sc(NC(=O)c3ccc(C)s3)c2C#N)C1 [Compound 10, 3-Cyano-2-{[1-(5-methyl-thiophen-2-yl)-methanoyl]-amino}-4,7-dihydro-5H-thieno[2,3-c]pyridine-6-carboxylic Acid Ethyl Ester]
- IC50 [1]: 200 nM
- IC50 [2]: > 100000 nM

SMILES: CCSC(=O)N1CCc2c(sc(NC(=O)c3cccnc3)c2C#N)C1 [Compound 16, 3-Cyano-2-[(1-pyridin-3-yl-methanoyl)-amino]-4,7-dihydro-5H-thieno[2,3-c]pyridine-6-carbothioic Acid S-ethyl Ester]
- IC50 [1]: ≤ 3000 nM
- IC50 [2]: > 100000 nM

SMILES: CCOC(=O)N1CCc2c(sc(NC(=O)c3cccnc3)c2C#N)C1 [Compound 1, N-(6-ethoxycarbonyl-3-cyano-4,5,6,7-tetrahydro-thieno[2,3-c]pyridin-2-yl)-nicotinyl Amide]
- IC50 [1]: 500 nM
- IC50 [2]: > 100000 nM

SMILES: CCOC(=O)N1CCc2c(sc(NC(=O)c3cccs3)c2C#N)C1 [Compound 7, 3-Cyano-2-[(1-thiophen-2-yl-methanoyl)-amino]-4,7-dihydro-5H-thieno[2,3-c]pyridine-6-carboxylic Acid Ethyl Ester]
- IC50 [1]: 2000 nM
- IC50 [2]: > 100000 nM

SMILES: CCOC(=O)N1CCc2c(sc(NC(=O)c3cc4ccccc4s3)c2C#N)C1 [Compound 8, 2-[(1-Benzo[b]thiophen-2-yl-methanoyl)-amino]-3-cyano-4,7-dihydro-5H-thieno[2,3-c]pyridine-6-carboxylic Acid Ethyl Ester]
- IC50 [1]: 5000 nM
- IC50 [2]: > 100000 nM

SMILES: Cc1ncsc1CCOC(=O)N1CCc2c(sc(NC(=O)c3cccnc3)c2C#N)C1 [Compound 17, 3-Cyano-2-[(1-Pyridin-3-yl-methanoyl)-amino]-4,7-dihydro-5H-thieno[2,3-c]pyridine-6-carboxylic Acid 2-(4-methyl-thiazol-5-yl)-ethyl Ester]
- IC50 [1]: ≤ 3000 nM
- IC50 [2]: > 100000 nM

SMILES: CCCC(=O)N1CCc2c(sc(NC(=O)c3cccnc3)c2C#N)C1 [Compound 14, N-(6-Butanoyl-3-cyano-4,5,6,7-tetrahydro-thieno[2,3-c]pyridin-2-yl)-nicotinyl Amide]
- IC50 [1]: ≤ 3000 nM
- IC50 [2]: > 100000 nM

SMILES: CCOC(=O)N1CCc2c(sc(NC(=O)C3=Cc4ccccc4OC3)c2C#N)C1 [Compound 6, 2-[(1-2H-Chromen-3-yl-methanoyl)-amino]-3-cyano-4,7-dihydro-5H-thieno[2,3-c]pyridine-6-carboxylic Acid Ethyl Ester]
- IC50 [1]: 2000 nM
- IC50 [2]: > 100000 nM

SMILES: CCOC(=O)N1CCc2c(sc(NC(=O)c3ccc4c(c3)OCC4)c2C#N)C1 [Compound 12]
- IC50 [1]: ≤ 3000 nM
- IC50 [2]: > 100000 nM

Source: US7517986B2, “Tetrahydropyridothiophenes for use in the treatment of cancer” (4SC AG, priority 2004, dated 2009)
